Results reported in US20100216847A1, “N[…] THE TREATMENT OF PAIN” (UNIVERSITY OF KENTUCKY RESEARCH FOUNDATION, priority 2006, published 2010).

Assays:
[1] = system: rodent model of nociceptive pain (tail-flick test); assay: Tail-flick test after intraperitoneal administration; type: in vivo, rat; conditions: male Sprague-Dawley rats, 5 mg/kg IP single dose, perchlorate salt, vs saline, n=6; preliminary data
Method: A study was performed to screen the analgesic activities of S(−) and R(+) enantiomers of nornicotine following administration by intraperitoneal route (IP) in a rodent model of nociceptive pain. The responses to acute thermal stimuli were determined using the tail-flick test [D′Amour F. E., Smith D. L. “A method for determining loss of pain sensation” J Pharmacol Exp Ther (1941), 72:74-79]. Tail-flick latency (TFL) was measured by recording the time from the onset of the heat stimulus to the tail to withdrawal of the tail from the heat source, using a standard tail-flick apparatus (EMDIE, Instrument Co., Roanoke, Va.). The sensitivity of the instrument was adjusted to provide an average baseline 2-3 seconds. Cut-off time of 10 s was used to avoid tail damage.
A single dose [5 mg/kg in perch salt form (perchlorate)] of each nornicotine enantiomer was administered (IP) in 6 male rats [Sprague-Dawley; about 90 days old, 350 g, (Harlan, Indianapolis, Ind.)]. Saline (vehicle, 1 ml/kg) served as control. TFL were determined prior to (twice, 15 min apart) and at 5, 15, 30, 45 and 60 min after i.p. administration. Data were presented as time courses of TFL (normalized for pre-injection baseline, s) [FIG. 1A] and areas under the curves (AUC0-60min) [FIG. 1B].

[2] = system: rodent model of chronic inflammatory pain (formalin test); assay: Formalin test (intra-plantar formalin) after intraperitoneal administration; type: in vivo, rat; conditions: male rats, 5 mg/kg IP fumarate salt, 15 min prior to formalin, n=6; for formalin-induced flinching, late (tonic) phase 20-60 min: significantly different from saline P<0.05
Method: A study was performed to screen the analgesic activities of S(−) and R(+) enantiomers of nornicotine following administration by intraperitoneal route (IP) in a rodent model of chronic inflammatory pain (formalin test). Intra-plantar injection of formalin produces a biphasic behavioral response consisting of flinching, lifting and licking behaviors in rodents. The first phase (acute, 0-20 min) results from direct stimulation of nociceptors (nociceptive pain) whereas the second phase (tonic, 20-60 min) involves central sensitization (a characteristic of neuropathic pain). Accordingly, the formalin test was used to determine the analgesic effects of S(−)- and R(+)-nornicotine [Wheeler-Aceto H., Covan A. “Standardization of the rat formalin test for the evaluation of analgesics” Psychopharmacology (1991) 104:35-44]. Formalin (50 mcl) was injected subcutaneously (SC) into the dorsal surface of the hind paw. The rat was placed in a Plexiglas cage and the intensity of pain (number of formalin-induced flinches) was rated in 5 min intervals for 60 min.
A single dose [5 mg/kg in salt form (fumarate)] of each nornicotine enantiomer and saline (control) was administered (IP) 15 min prior to formalin (SC) injection in 6 male rats. Data were presented as time courses of formalin-induced flinches (number) for S(−)-nornicotine, R(+)-nornicotine and saline [FIG. 4A] and areas under the curves (AUC) calculated for phase 1 (acute, 0-20 min) [FIG. 4B] and phase 2 (tonic, 20-60 min) [FIG. 4C].

[3] = system: rodent model of nociceptive pain (tail-flick test); assay: Tail-flick test after intrathecal administration; type: in vivo, rat; conditions: male rats, 10 mcg IT single dose, perchlorate salt, n=5, P<0.05 post-hoc SNK
Method: A study was performed to screen the analgesic activities of S(−) and R(+) enantiomers of nornicotine following administration by intrathecal route (IT) in a rodent model of nociceptive pain (tail-flick test).
In order to inject these drugs via the IT route chronic catheterization of the spinal subarachnoid space was performed in rats [Yaksh T., Rudy T. “Chronic catheterization of the spinal subarachnoid space” Physiol Behav (1976) 17:1031-1036 (with minor modification)]. Briefly, a 21 cm long P-10 polyethylene tubing (volume 10 mcl) which extended 8.5 cm beyond an incision in the atlanto-occipital membrane was secured to the scull with acrylic cement. The catheter rested in the vicinity of T-12 at the rostral face of the lumbar cord enlargement. The studies were initiated 1 week after implantation of the IT catheter.
A single dose [10 mcg in perch salt form (perchlorate)] of each enantiomer was administered (IT) in 5 male rats. Saline (vehicle; 10 mcl) was used as control. The responses to acute thermal stimuli were determined using the tail-flick test (baseline 2-3 seconds, cut-off 10 seconds). TFL were measured prior to (twice, 15 min apart) and at 5, 10, 15, 30, 45 and 60 min after IT administration. Data were presented as time courses of TFL (normalized for pre-injection baseline, s) [FIG. 2A] and areas under the curves (AUC0-60min) [FIG. 2B].

[4] = system: rodent model of nociceptive pain (paw withdrawal test); assay: Thermal paw withdrawal test after intraperitoneal administration; type: in vivo, rat; conditions: male rats, 2.5, 5 and 10 mg/kg IP, free base, n=8; P<0.05 1-way ANOVA
Method: To further characterize the analgesic properties of S(−)nornicotine, a dose-response relationship was determined. Responsiveness to acute thermal noxious stimuli was assessed by a thermal paw withdrawal test [Hargreaves K. et al., “A new sensitive method for measuring thermal nociception in cutaneous hyperalgesia” Pain (1988) 32:77-88]. This test, which uses a ramp heat stimulus on the plantar surface of the paw, appears to generate more consistent analgesic responses to nicotinic drugs as compared to tail flick test. Plantar Stimulator Analgesia Meter (11TC, Life Science, Woodland Hills, Calif.) was used. Briefly, the rat was placed in a clear plastic chamber and allowed to acclimate for 5 min. After the acclimation period, the radiant heat was positioned under the glass floor directly beneath the plantar hind paw. The heat source activated a timer that was controlled by a photocell. The hind paw withdrawal interrupted the photocell and automatically stopped the timer. Latency to paw withdrawal (PWL) was measured to the nearest 0.1 s. […]
S(−)-Nornicotine was administered in three doses (2.5, 5 and 10 mg/kg in form of free base) via the IP route in 8 male rats. […] Responses (PWL, s) were measured prior to and at 5, 10, 15, 30, and 60 min after IP injection. For each rat and at each time point, response was normalized for baseline measured on the day of experiment. […]

[5] = humans; cited from earlier work
[6] = following peripheral administration of nicotine; cited from earlier work
[7] = in vivo; cited from earlier work
[8] = following repeated nicotine dosing; cited from earlier work

| Compound | analgesic effect (tail-flick latency, AUC0-60min) [1] | formalin-induced flinching, early (acute) phase 0-20 min [2] | formalin-induced flinching, late (tonic) phase 20-60 min [2] | analgesic effect (tail-flick latency, AUC0-60min) vs the other enantiomer [3] | analgesic effect (tail-flick latency, AUC0-60min) vs saline ([3]; preliminary data) | analgesic effect (paw withdrawal latency, AUC0-60min vs log dose) [4] | potency and toxicity profile compared to R(+)-nornicotine (Dose escalation studies) | plasma half-life [5] [h] | residence in the rat's brain [6] [min] | oral bioavailability [7] [%] | accumulation in brain compared to nicotine [8] | oral bioavailability (in words) [7] |
| --- | --- | --- | --- | --- | --- | --- | --- | --- | --- | --- | --- | --- |
| c1cncc([C@H]2CCCN2)c1 [R(+)-nornicotine] | less pronounced | Neither enantiomer had significant effect | attenuated formalin-induced flinching | – | – | – | – | – | – | – | – | – |
| c1cncc([C@@H]2CCCN2)c1 [S(−)-nornicotine] | significantly greater as compared to saline | Neither enantiomer had significant effect | attenuated formalin-induced flinching | significantly greater as compared to R(+)-nornicotine | significantly greater as compared to saline | significantly related to dose | more favorable potency and toxicity profile | – | – | – | – | – |
| CN1CCCC1c1cccnc1 (centres unmarked) [nicotine, reference compound] | – | – | – | – | – | – | – | 1 | 52 | 10 | – | – |
| Nornicotine | – | – | – | – | – | – | – | 8 | 166 | – | about 4 fold | good oral bioavailability |
